The test system of the assay is patients with metastatic NSCLC progressing on or after platinum therapy. Nature of the assay: LUNAR phase 3 randomized study: overall survival, progression-free survival, radiological response.

Protocol: LUNAR was a prospective, phase 3, randomized, open-label, parallel study (EF-24; NCT02973789) of TTFields (150 kHz) therapy concomitant with standard-of-care systemic therapy (docetaxel or investigator's choice immune checkpoint inhibitor) in patients with metastatic NSCLC progressing on or after platinum therapy. LUNAR was conducted at 124 sites across 17 countries in North America, Europe, and Asia (Table Si) between February 2017 and November 2021.
Eligible participants were adults (≥22 years of age) with a histological or cytological diagnosis of metastatic NSCLC that had shown radiological progression while on or after platinum-based systemic therapy (prior ICI permitted). Other than maintenance therapy, the most recent systemic therapy administered for advanced NSCLC was platinum-therapy. […]
Eligible patients were randomly assigned 1:1 (within 28 days of providing informed consent) to receive TTFields therapy to the thorax concomitant with investigator's choice of standard therapy (an immune checkpoint inhibitor [nivolumab, pembrolizumab, or atezolizumab] or docetaxel). Randomization was determined centrally using variable blocked randomization and an IxRS system, and stratified by tumor histology, treatment (docetaxel or an immune checkpoint inhibitor), and region (North America, Western Europe/Israel, and Eastern Europe). […]

Under “docetaxel subgroup”, `CC(=O)O[C@@]12CO[C@@H]1C[C@H](O)[C@@]1(C)C(=O)[C@H](O)C3=C(C)[C@@H](OC(=O)[C@H](O)[C@@H](NC(=O)OC(C)(C)C)c4ccccc4)C[C@@](O)([C@@H](OC(=O)c4ccccc4)[C@H]21)C3(C)C` [Docetaxel, docetaxel] gave an one-year survival rate of 39.4%. The same compound had a median overall survival (subgroup receiving docetaxel) of 8.9 months.

Values taken from patent US20240399142A1, “Methods Of Using Alternating Electric Fields And Checkpoint Inhibitors” (NOVOCURE GMBH, priority 2023, published 2024).
